Test results from patent US20260125382A1, “COMPOUNDS FOR INHIBITING OR DEGRADING CDK2 AND/OR CDK9 AND MEDICINAL USE THEREOF” (KOREA RESEARCH INSTITUTE OF CHEMICAL TECHNOLOGY, priority 2022, published 2026).

Assays:
CDK2 = target: T1, CDK2 (Homo sapiens, UniProt P24941); test: CDK protein degradation activity (Western blotting), CDK2; assay type: cell-based; conditions: MDA-MB-231 cells, 16 hours, Western blot
T1 construct: endogenous in cells; host or cells: MDA-MB-231
Outline: (§1)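 MDA-MB-231 cells treated 16 h with compound at 100 nM, 1 μM or 10 μM, with DMSO as control. Lysates run on SDS-PAGE and immunoblotted for CDK2, CDK9 and tubulin; band levels quantified by densitometry.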

CDK9 = target: T2, CDK9 (Homo sapiens, UniProt P50750); test: CDK protein degradation activity (Western blotting), CDK9; assay type: cell-based; conditions: MDA-MB-231 cells, 16 hours, Western blot
T2 construct: endogenous in cells; host or cells: MDA-MB-231
Outline: as §1

T2 sequence (P50750 whole entry): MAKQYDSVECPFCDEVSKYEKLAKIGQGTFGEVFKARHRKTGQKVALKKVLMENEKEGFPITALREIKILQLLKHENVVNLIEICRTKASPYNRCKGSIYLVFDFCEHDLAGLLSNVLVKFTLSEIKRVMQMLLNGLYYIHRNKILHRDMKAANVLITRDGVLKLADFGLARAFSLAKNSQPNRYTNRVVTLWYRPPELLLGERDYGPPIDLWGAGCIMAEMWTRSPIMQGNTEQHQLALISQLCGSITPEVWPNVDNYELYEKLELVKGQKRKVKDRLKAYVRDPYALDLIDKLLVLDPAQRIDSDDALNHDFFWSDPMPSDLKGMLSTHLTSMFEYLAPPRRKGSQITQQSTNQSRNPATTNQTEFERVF

| Enzyme degradation CDK2 (% remaining) @ 0.1 μM (CDK2) | Enzyme degradation CDK2 (% remaining) @ 1 μM (CDK2) | Enzyme degradation CDK2 (% remaining) @ 10 μM (CDK2) | Enzyme degradation CDK9 (% remaining) @ 0.1 μM (CDK9) | Enzyme degradation CDK9 (% remaining) @ 1 μM (CDK9) | Enzyme degradation CDK9 (% remaining) @ 10 μM (CDK9) | SMILES |
| --- | --- | --- | --- | --- | --- | --- |
| 10/10/10% | 10/10/10% | 10/10/10% | 10% | 0% | 0% | O=C1CC[C@H](N2C(=O)c3ccc(N4CCN(CC5CCN(c6ccc(Nc7ncnc8c7ncn8[C@H]7C[C@@H](NC(=O)c8c(Cl)cccc8Cl)C7)cc6)CC5)CC4)cc3C2=O)C(=O)N1 [Compound 300, 2,6-dichloro-N-((1s,3s)-3-(6-((4-(4-((4-(2-(2,6-dioxopiperidin-3-yl)-1,3-dioxoisoindolin-5-yl)piperazin-1-yl)methyl)piperidin-1-yl)phenyl)amino)-9H-purin-9-yl)cyclobutyl)benzamide] |
| 30% | 20% | 10% | 70% | 0% | 0% | O=C1CC[C@H](N2C(=O)c3cc(F)c(N4CCN(CC5CCN(c6ccc(Nc7ncnc8c7ncn8C7CC(NC(=O)c8c(Cl)cccc8Cl)C7)cc6)CC5)CC4)cc3C2=O)C(=O)N1 (stereo partly drawn) [Compound 301, 2,6-dichloro-N-((1s,3s)-3-(6-((4-(4-((4-(2-(2,6-dioxopiperidin-3-yl)-6-fluoro-1,3-dioxoisoindolin-5-yl)piperazin-1-yl)methyl)piperidin-1-yl)phenyl)amino)-9H-purin-9-yl)cyclobutyl)benzamide] |
| 20% | 30% | 50% | 20% | 0% | 0% | Cc1cccc(C(=O)NC2CC(n3cnc4c(NCCC5CCN(CC6CCN(c7ccc8nnn([C@H]9CCC(=O)NC9=O)c(=O)c8c7)CC6)CC5)ncnc43)C2)n1 (stereo partly drawn) [Compound 304, N-((1s,3s)-3-(6-((2-(1-((1-(3-(2,6-dioxopiperidin-3-yl)-4-oxo-3,4-dihydrobenzo[d][1,2,3]triazin-6-yl)piperidin-4-yl)methyl)piperidin-4-yl)ethyl)amino)-9H-purin-9-yl)cyclobutyl)-6-methylpicolinamide] |
| 100/100/100% | 100/100/100% | 100/100/100% | 30% | 0% | 10% | Cc1cccc(C(=O)NC2CC(n3cnc4c(NCCC5CCN(CC6CCN(c7cccc8c7C(=O)N([C@H]7CCC(=O)NC7=O)C8=O)CC6)CC5)ncnc43)C2)n1 (stereo partly drawn) [Compound 306, N-((1s,3s)-3-(6-((2-(1-((1-(2-(2,6-dioxopiperidin-3-yl)-1,3-dioxoisoindolin-4-yl)piperidin-4-yl)methyl)piperidin-4-yl)ethyl)amino)-9H-purin-9-yl)cyclobutyl)-6-methylpicolinamide] |
| 0/0/0% | 0/0/0% | 0/0/0% | 0/0/0% | 0/0/0% | 0/0/0% | O=C1CC[C@H](n2nnc3ccc(N4CCC(CN5CCN(c6ccc(Nc7ncnc8c7ncn8C7CC(NC(=O)Cc8ccccc8)C7)cc6)CC5)CC4)cc3c2=O)C(=O)N1 (stereo partly drawn) [Compound 307, N-((1s,3s)-3-(6-((4-(4-((1-(3-(2,6-dioxopiperidin-3-yl)-4-oxo-3,4-dihydrobenzo[d][1,2,3]triazin-6-yl)piperidin-4-yl)methyl)piperazin-1-yl)phenyl)amino)-9H-purin-9-yl)cyclobutyl)-2-phenylacetamide] |
| 40% | 30% | 30% | 20% | 0% | 20% | Cc1cccc(C(=O)NC2CC(n3cnc4c(NCCC5CCN(CC6CCN(c7ccc8c(c7)C(=O)N([C@H]7CCC(=O)NC7=O)C8=O)CC6)CC5)ncnc43)C2)n1 (stereo partly drawn) [Compound 308, N-((1s,3s)-3-(6-((2-(1-((1-(2-(2,6-dioxopiperidin-3-yl)-1,3-dioxoisoindolin-5-yl)piperidin-4-yl)methyl)piperidin-4-yl)ethyl)amino)-9H-purin-9-yl)cyclobutyl)-6-methylpicolinamide] |
| 90% | 80% | 100% | 0/0/0% | 0/0/0% | 0/0/0% | Cc1cccc(C(=O)NC2CC(n3cnc4c(NCCC5CCN(CC6CCN(C(=O)C7CN(c8ccc9c(c8)C(=O)N([C@H]8CCC(=O)NC8=O)C9=O)C7)CC6)CC5)ncnc43)C2)n1 (stereo partly drawn) [Compound 309, N-((1s,3s)-3-(6-((2-(1-((1-(1-(2-(2,6-dioxopiperidin-3-yl)-1,3-dioxoisoindolin-5-yl)azetidin-3-carbonyl)piperidin-4-yl)methyl)piperidin-4-yl)ethyl)amino)-9H-purin-9-yl)cyclobutyl)-6-methylpicolinamide] |
| 10% | 20% | 20% | 10% | 0% | 0% | O=C1CC[C@H](N2C(=O)c3cccc(NCC(=O)N4CCN(CC5CCN(c6ccc(Nc7ncnc8c7ncn8[C@H]7C[C@@H](NC(=O)c8c(Cl)cccc8Cl)C7)cc6)CC5)CC4)c3C2=O)C(=O)N1 [Compound 311, 2,6-dichloro-N-((1s,3s)-3-(6-((4-(4-((4-((2-(2,6-dioxopiperidin-3-yl)-1,3-dioxoisoindolin-4-yl)glycyl)piperazin-1-yl)methyl)piperidin-1-yl)phenyl)amino)-9H-purin-9-yl)cyclobutyl)benzamide] |
| 10/10/10% | 10/10/10% | 10/10/10% | 0/0/0% | 0/0/0% | 0/0/0% | O=C1CC[C@H](N2C(=O)c3ccc(NCC(=O)N4CCN(CC5CCN(c6ccc(Nc7ncnc8c7ncn8[C@H]7C[C@@H](NC(=O)c8c(Cl)cccc8Cl)C7)cc6)CC5)CC4)cc3C2=O)C(=O)N1 [Compound 312, 2,6-dichloro-N-((1s,3s)-3-(6-((4-(4-((4-((2-(2,6-dioxopiperidin-3-yl)-1,3-dioxoisoindolin-5-yl)glycyl)piperazin-1-yl)methyl)piperidin-1-yl)phenyl)amino)-9H-purin-9-yl)cyclobutyl)benzamide] |
| 10/10/10% | 10/10/10% | 10/10/10% | 10% | 0% | 0% | O=C1CC[C@H](n2nnc3ccc(N4CCC5(CC4)CC(N4CCN(c6ccc(Nc7ncnc8c7ncn8[C@H]7C[C@@H](NC(=O)Cc8ccccc8)C7)cc6)CC4)C5)cc3c2=O)C(=O)N1 [Compound 314, N-((1s,3s)-3-(6-((4-(4-(7-(3-(2,6-dioxopiperidin-3-yl)-4-oxo-3,4-dihydrobenzo[d][1,2,3]triazin-6-yl)-7-azaspiro[3.5]nonan-2-yl)piperazin-1-yl)phenyl)amino)-9H-purin-9-yl)cyclobutyl)-2-phenylacetamide] |
| 10% | 20% | 30% | 0/0/0% | 0/0/0% | 0/0/0% | O=C1CC[C@H](N2C(=O)c3ccc(N4CCC5(CC4)CC(N4CCN(c6ccc(Nc7ncnc8c7ncn8C7CC(NC(=O)c8c(Cl)cccc8Cl)C7)cc6)CC4)C5)cc3C2=O)C(=O)N1 (stereo partly drawn) [Compound 315, 2,6-dichloro-N-((1s,3s)-3-(6-((4-(4-(7-(2-(2,6-dioxopiperidin-3-yl)-1,3-dioxoisoindolin-5-yl)-7-azaspiro[3.5]nonan-2-yl)piperazin-1-yl)phenyl)amino)-9H-purin-9-yl)cyclobutyl)benzamide] |
| 30% | 30% | 50% | 0/0/0% | 0/0/0% | 0/0/0% | O=C1CCC(N2C(=O)c3cc(F)c(N4CCC5(CC4)CC(N4CCN(c6ccc(Nc7ncnc8c7ncn8[C@H]7C[C@@H](NC(=O)c8c(Cl)cccc8Cl)C7)cc6)CC4)C5)cc3C2=O)C(=O)N1 (stereo partly drawn) [Compound 316, 2,6-dichloro-N-((1s,3s)-3-(6-((4-(4-(7-(2-(2,6-dioxopiperidin-3-yl)-6-fluoro-1,3-dioxoisoindolin-5-yl)-7-azaspiro[3.5]nonan-2-yl)piperazin-1-yl)phenyl)amino)-9H-purin-9-yl)cyclobutyl)benzamide] |
